{
  "source": "patent US9389223B2",
  "about": "“Pharmacodynamic assays” (The United States of America, as represented by the …, priority 2004, dated 2016)",
  "key": {"acetylated lysine": {"tested_on": "acetylated lysine", "test": "Flow cytometry of acetylated lysine in K562 cells co-stained for activated caspase 3", "type": "cell-based, human", "settings": "K562, 1 μM, 48 hours", "protocol": "(§1) K562 chronic myelogenous leukemia cells were incubated with vehicle alone, 1 μM imatinib (the anticancer drug also known as Gleevec), 1 μM MS-275, or both for 48 hours. The cells were then stained for acetylated lysine as described above and co-stained with antibody to activated caspase 3 as an indicator of cells undergoing apoptosis. Dot plots display acetylated lysine on the x-axis and activated caspase 3 on the y-axis. The multiparameter flow cytometric assay is a powerful tool to monitor pharmacodynamic changes induced by anticancer drugs used in monotherapy or combination therapy protocols. HDAC inhibitors have been reported to promote imatinib-mediated apoptosis in Bcr/Abl+ human myeloid leukemia cells, including imatinib-resistant cells. The effect of MS-275 and imatinib were therefore examined, alone and in combination, on apoptosis in the Bcr/Abl+ cell line K562. Because both MS-275 and imatinib have been reported to induce apoptosis associated with caspase 3 activation, an antibody was used that specifically recognizes activated caspase 3 in a flow assay. This caspase 3 flow assay effectively monitors drug-induced apoptosis. When combined detection of acetylated lysine, this flow assay permitted simultaneous monitoring of apoptosis (caspase 3) and acetylated lysine."}, "Hsp70": {"tested_on": "Hsp70", "test": "Flow cytometry of Hsp70 levels in K562 cells", "type": "cell-based", "settings": "single drug, relative to control cells", "source_text": "(§2) Leukemia K562 cell line samples containing approximately 5×10^6 to 1×10^7 cells were exposed to either the anti-cancer drug 17-allylaminogeldanamycin (17-AAG) or one of the deacetylase inhibitors MS-275 or trichostatin A (TSA). Some samples received both 17-AAG and TSA or both 17-AAG and MS-275. Control samples received no drug. Administration of the 17-AAG anti-cancer drug led to functional changes in Hsp90 and increased expression of Hsp70. […] TSA is a deacetylase inhibitor that can affect acetylation of numerous proteins. In this study, the effect of TSA on tubulin acetylation was observed using an antibody that specifically binds to acetylated tubulin.\n(§3) After treatment with the various drugs, the cells were resuspended in fixation solution (0.4% paraformaldehyde in PBS), incubated at 37° C. for 5-10 minutes and washed with wash buffer. The fixed cells were then resuspended in permeabilization solution (4% Triton X-100 in wash buffer) and incubated at room temperature for 5 minutes. Cells were incubated for 1 hour at room temperature with antibodies to the various pharmacodynamic markers. Several cell samples were incubated with antibodies to several markers at once. […] Fluorescence associated with the cells was detected and quantified by flow cytometry."}, "acetylated tubulin": {"tested_on": "acetylated tubulin", "test": "Flow cytometry of acetylated tubulin in K562 cells", "type": "cell-based", "settings": "single drug", "source_text": "as §2, §3"}, "[1]": {"tested_on": "K562 chronic myelogenous leukemia cells", "test": "Flow cytometry of apoptosis (activated caspase 3) in K562 cells", "type": "cell-based, human", "settings": "K562, 1 μM, 48 hours, single drug", "protocol": "as §1"}},
  "data": [
    {"smiles": "Nc1ccccc1NC(=O)c1ccc(CNC(=O)OCc2cccnc2)cc1", "note": "[MS-275, N-(2-aminophenyl)-4-[N-(pyridin-3-ylmethoxycarbonyl)aminomethyl]benzamide]", "values": [
      {"measurement": "cells with strongly upregulated acetylation", "setting": "acetylated lysine", "result": "over 50%"}
    ]},
    {"smiles": "C=CCNC1=C2C[C@@H](C)C[C@H](OC)[C@H](O)[C@@H](C)/C=C(\\C)[C@H](OC(N)=O)[C@@H](OC)/C=C\\C=C(/C)C(=O)NC(=CC1=O)C2=O", "note": "[17-AAG, 17-allylaminogeldanamycin]", "values": [
      {"measurement": "levels of Hsp70", "setting": "Hsp70", "result": "increased levels of Hsp70"}
    ]},
    {"smiles": "CC(/C=C/C(=O)NO)=C\\[C@@H](C)C(=O)c1ccc(N(C)C)cc1", "note": "[TSA, trichostatin A]", "values": [
      {"measurement": "levels of acetylated tubulin", "setting": "acetylated tubulin", "result": "increased levels of acetylated tubulin"}
    ]},
    {"smiles": "Cc1ccc(NC(=O)c2ccc(CN3CCN(C)CC3)cc2)cc1Nc1nccc(-c2cccnc2)n1", "note": "[imatinib, 4-[(4-Methyl-1-piperazinyl)methyl]-N-[4-methyl-3-[[4-(3-pyridinyl)-2-yrimidinyl]amino]-phenyl]benzamide methanesulfonate]", "values": [
      {"measurement": "percent of apoptotic cells (activated caspase 3)", "setting": "[1]", "result": "increased the percent of apoptotic cells"},
      {"measurement": "acetylation of the activated caspase 3 positive cell population", "setting": "acetylated lysine", "result": "lost acetylation"}
    ]}
  ]
}
